Earlier results in US8362260B2, “Crystalline forms of dexlansoprazole” (Dipharma Francis S.r.l., priority 2009, dated 2013).

Settings: in vivo

Cc1c(OCC(F)(F)F)ccnc1C[S@@+]([O-])c1nc2ccccc2[nH]1 [Dexlansoprazole in amorphous form, (R)-2-[[[3-methyl-4(2,2,2-trifluoroethoxy)-2-piridyl]methyl]sulphinyl]benzimidazole]
bioavailability: greater bioavailability
